# Results from patent US20150121570A1, “GENE […] DROUGHT STRESS TOLERANCE AND T[…] WITH THE SAME” (priority 2013, published 2015).
# Assays:
# Assay type in all cases: in vivo, Arabidopsis thaliana
# [1] = tested on: mature leaves of wild-type and atamdr plants; experiment: ABA-induced H2O2 production analyzed by DAB staining; settings: 0 or 100 μM ABA
# Procedure: (§1) FIGS. 4a to 4c represent stomatal aperture and H2O2 production of wild-type, atamdr plants in response to different concentrations of ABA. […] Light-grown, 4-week-old mature leaves of wild-type and atamdr plants were incubated in stomatal opening solution for 2 h and transferred to solutions containing the 10 μM ABA for 2 h. Stomata on the abaxial surface were observed by light microscopy. […] Leaves from wild-type, atamdr plants were treated with 0 or 100 μM ABA for 2 h and transferred to 100 μg/mL DAB (3,3′-diaminobenzidine-4HCl) solution overnight. The presence and level of H2O2 in the leaves were visualized as a dark brown color.
# To investigate the accumulation of H2O2, light-grown, 4-week-old mature leaves of wild-type (WT), atamdr plants were incubated in stomatal opening solution for 2 h and treated with 0 or 100 μM ABA. Leaves were transferred to 100 μg/mL DAB (3,3′-diaminobenzidine-4HCl) solution overnight, and washed and fixed by 96% ethanol. Leaves were observed after complete chlorosis (Luis David Maldonado-Bonilla et al.; Eur J Plant Pathol. 121:439449, 2008).
# To investigate the accumulation of H2O2, light-grown, 4-week-old mature leaves of wild-type and atamdr plants were treated with 0 or 100 μM ABA, and stained with 100 ng/mL DAB (3,3′-diaminobenzidine-4HCl) solution in dark.
# [2] = tested on: AtAIRP2 gene expression; experiment: Gene expression after ABA treatment by RT-PCR; settings: atamdr mutant, 300 μM ABA hormone, 1 hour and 3 hours
# Procedure: FIGS. 2a to 2d represent the expression patterns of AtAMDR in response to various abiotic stress conditions. Total RNA was prepared from light-grown, 7-day-old Arabidopsis seedlings, which had been treated with drought (FIG. 2a), cold (FIG. 2b), high salinity (300 mM NaCl) (FIG. 2c) or 100 μM ABA (FIG. 2d). Induction patterns of AtAMDR were investigated by RT-PCR. RD29A was used as representative control gene for drought, cold and salt stress, and Rab18 was used as control gene for ABA.
# Total RNA was prepared from 7-day-old Arabidopsis seedlings, which had been treated with drought (1-2 h), cold (4° C. for 6-12 h), high salinity (300 mM NaCl for 1-3 h) or 100 μM ABA (1-3 h). Induction patterns of AtAMDR were investigated by RT-PCR.
# In order to determine expressions of the AtAMDR gene to drought stress, the wild type Arabidopsis thaliana seedlings which were grown on medium for 2 weeks were exposed in the air, and sampled after 1 hour and 2 hours. In order to determine expressions of the AtAMDR gene to salt stress, the wild type Arabidopsis thaliana seedlings which were grown on medium for 2 weeks were treated with 300 mM sodium chloride, and sampled after 1 hour and 3 hours. […]
# The AtAIRP2 gene expressions in various abiotic stresses were analyzed by RT-PCR. […]
# [3] = tested on: stomata of mature leaves of wild-type and atamdr mutant plants; experiment: ABA-induced stomatal closure (stomatal aperture measurement); settings: 10 μm ABA for 2 h; for stomatal aperture (the ratio of width to length): 4-week-old leaves
# Procedure: as §1
# Mature leaves of light-grown, 4-week-old wild-type and atamdr mutant plants were used for the observation of mature stomata. Detached leaves were incubated in stomatal opening solution (10 mM MES-KOH, […] CaCl2, 10 mM KCl) for 2 h and then transferred to stomatal opening solution supplemented with 0 or 10 μM ABA for 2 h. Subsequently, epidermal strips were mounted on glass slides and observed with a light microscope.
# Mature leaves of light-grown, 4-week-old wild-type and atamdr mutant plants were detached and incubated in stomatal opening solution and then transferred to stomatal opening solution supplemented with various concentrations of ABA (0 and 10 μM) for 2 h. […] Stomatal aperture of wild-type plants treated with 10 μm ABA was approximately 0.09 which was 2-fold closed than that of mutant, while stomatal aperture of atamdr mutant treated with 10 μm ABA was approximately 0.175, which was 1.94-fold compared to that of wild-type plants.
structure (smiles),measurement,setting,value
"CC1=CC(=O)CC(C)(C)[C@@]1(O)/C=C/C(C)=C\C(=O)O [ABA, abscisic acid]",accumulation of H2O2,[1]; atamdr leaves,significantly delayed
same,accumulation of H2O2,[1]; wild-type leaves,drastically arisen
same,AtAIRP2 gene expression,[2],not affected
same,stomatal aperture of atamdr mutant compared to that of wild-type plants,[3],1.94 fold
same,stomatal aperture (the ratio of width to length),[3]; atamdr mutant,approximately 0.175
same,stomatal aperture (the ratio of width to length),[3]; wild-type plants,approximately 0.09
